Results: PubChem BioAssay (NCI)
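In this assay, cells in 96-well plates receive the compound at five concentrations for 48 hours. Endpoints are linearly interpolated between the surrounding concentrations. At the TGI there is no net growth.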

How the values were obtained:
Assay in all cases: NCI tumour cell line growth inhibition, 48 h
[1] = test system: 786-0 renal
[2] = test system: A498 renal
[3] = test system: A549 NSCLC
[4] = test system: ACHN renal
[5] = test system: BT-549 breast
[6] = test system: CAKI-1 renal
[7] = test system: CCRF-CEM leukemia
[8] = test system: COLO 205 colon
[9] = test system: DU-145 prostate
[10] = test system: EKVX NSCLC
[11] = test system: HCC-2998 colon
[12] = test system: HCT-116 colon
[13] = test system: HCT-15 colon
[14] = test system: HL-60(TB) leukemia
[15] = test system: HOP-62 NSCLC
[16] = test system: HOP-92 NSCLC
[17] = test system: HS 578T breast
[18] = test system: HT29 colon
[19] = test system: IGROV1 ovarian
[20] = test system: K-562 leukemia
[21] = test system: KM12 colon
[22] = test system: M14 melanoma
[23] = test system: MALME-3M melanoma
[24] = test system: MCF7 breast
[25] = test system: MDA-MB-231 breast
[26] = test system: MDA-MB-435
[27] = test system: MDA-N
[28] = test system: MOLT-4 leukemia
[29] = test system: NCI-H226 lung
[30] = test system: NCI-H23 lung
[31] = test system: NCI-H460 lung
[32] = test system: NCI-H522 lung
[33] = test system: NCI/ADR-RES ovarian
[34] = test system: OVCAR-3 ovarian
[35] = test system: OVCAR-4 ovarian
[36] = test system: OVCAR-5 ovarian
[37] = test system: OVCAR-8 ovarian
[38] = test system: PC-3 prostate
[39] = test system: RPMI-8226 leukemia
[40] = test system: RXF 393 renal
[41] = test system: SF-268 CNS
[42] = test system: SF-295 CNS
[43] = test system: SF-539 CNS
[44] = test system: SK-MEL-2 melanoma
[45] = test system: SK-MEL-28 melanoma
[46] = test system: SK-MEL-5 melanoma
[47] = test system: SK-OV-3 ovarian
[48] = test system: SN12C renal
[49] = test system: SNB-19 CNS
[50] = test system: SNB-75 CNS
[51] = test system: SR leukemia
[52] = test system: SW-620 colon
[53] = test system: T-47D breast
[54] = test system: TK-10 renal
[55] = test system: U251 CNS
[56] = test system: UACC-257 melanoma
[57] = test system: UACC-62 melanoma
[58] = test system: UO-31 renal

Measured: TGI

O=S(=O)(O)c1cc(S(=O)(=O)O)c2c(N=Nc3ccc(N=Nc4ccccc4)cc3)c(O)ccc2c1
> 100 µM: all assays above

NS(=O)(=O)c1ccc(N=Nc2ccc(O)c(C(=O)O)c2)cc1
not listed: [7] | [43] | [51]
> 100 µM: all other assays above
